Data on seven compounds can be found in patent publication US20100056508A1, “AMINE DERIVATIVES AND THEIR USE IN BETA-2-ADRENORECEPTOR MEDIATED DISEASES” (ASTRAZENECA AB, priority 2006, published 2010).

The structures appear in SMILES notation. Some results are limits rather than exact numbers.

Experiment [1] deals with T1, Adrenergic β2 (Homo sapiens, UniProt P07550).
T1 construct: Adherent H292 cells were removed from tissue culture flasks; endogenous in cells; host or cells: H292 cells
The experiment can be described thus: Adrenergic β2 mediated cAMP production in H292 cells (AlphaScreen cAMP detection). Type of experiment: cell-based. The arrangement: key to β2 Int Act: fraction of formoterol maximum activity (formoterol = 1). As to conditions: for β2 Int Act: Intrinsic Activity as a fraction relative to the maximum activity determined for formoterol; for EC50: cAMP production, 60 minutes at room temperature, 300 μM rolipram, read-out: β2 pEC50 (converted). As to the method:
Adrenergic β2 Mediated cAMP Production
H292 cells were grown in 225 cm2 flasks incubator at 37° C., 5% CO2 in RPMI medium containing, 10% (v/v) FBS (foetal bovine serum) and 2 mM L-glutamine.
Adherent H292 cells were removed from tissue culture flasks by treatment with Accutase™ cell detachment solution for 15 minutes. Flasks were incubated for 15 minutes in a humidified incubator at 37° C., 5% CO2. Detached cells were re-suspended in RPMI media (containing 10% (v/v) FBS and 2 mM L-glutamine) at 1×10^6 cells per mL. 10000 cells in 100 μL were added to each well of a tissue-culture-treated 96-well plate and the cells incubated overnight in a humidified incubator at 37° C., 5% CO2. The culture media was removed and cells were washed twice with 100 μL assay buffer and replaced with 50 μL assay buffer (HBSS solution containing 10 mM HEPES pH7.4 and 5 mM glucose). Cells were rested at room temperature for 20 minutes after which time 25 μL of rolipram (1.2 mM made up in assay buffer containing 2.4% (v/v) dimethylsulphoxide) was added. Cells were incubated with rolipram for 10 minutes after which time test compounds were added and the cells were incubated for 60 minutes at room temperature. The final rolipram concentration in the assay was 300 μM and final vehicle concentration was 1.6% (v/v) dimethylsulphoxide. The reaction was stopped by removing supernatants, washing once with 100 μL assay buffer and replacing with 50 μL lysis buffer. The cell monolayer was frozen at −80° C. for 30 minutes (or overnight).
AlphaScreen™ cAMP Detection
The concentration of cAMP (cyclic adenosine monophosphate) in the cell lysate was determined using AlphaScreen™ methodology. The frozen cell plate was thawed for 20 minutes on a plate shaker then 10 μL of the cell lysate was transferred to a 96-well white plate. 40 μL of mixed AlphaScreen™ detection beads pre-incubated with biotinylated cAMP, was added to each well and the plate incubated at room temperature for 10 hours in the dark. The AlphaScreen™ signal was measured using an EnVision spectrophotometer (Perkin-Elmer Inc.) with the recommended manufacturer's settings. cAMP concentrations were determined by reference to a calibration curve determined in the same experiment using standard cAMP concentrations. Concentration response curves for agonists were constructed and data was fitted to a four parameter logistic equation to determine both the pEC50 and Intrinsic Activity. Intrinsic Activity was expressed as a fraction relative to the maximum activity determined for formoterol in each experiment.
In general terms: cAMP levels reflect the balance of adenylyl cyclase and phosphodiesterase activity.

Experiment [2] concerns the target T2, recombinant human adrenergic beta 1 receptors (Homo sapiens, UniProt P08588).
T2 construct: purchased Euroscreen
The experiment can be described thus: Adrenergic β1 selectivity assay, [125I]-Iodocyanopindolol binding to membranes. Conditions: inhibition of [125I]-Iodocyanopindolol binding, read-out: β1 bind pIC50 (converted). On the procedure:
Membranes containing recombinant human adrenergic beta 1 receptors were obtained from Euroscreen. These were diluted in Assay Buffer (50 mM HEPES, 1 mM EDTA, 120 mM NaCl, 0.1% gelatin, pH 7.4) to provide a final concentration of membranes that gave a clear window between maximum and minimum specific binding.
(§1) Assays were performed in U-bottomed 96-well polypropylene plates. 10 μL [^125I]-Iodocyanopindolol (0.036 nM final concentration) and 10 μL of test compound (10× final concentration) were added to each test well. For each assay plate 8 replicates were obtained for [^125I]-Iodocyanopindolol binding in the presence of 10 μL vehicle (10% (v/v) DMSO in Assay Buffer; defining maximum binding) or 10 μL Propranolol (10 μM final concentration; defining non-specific binding (NSB)). Membranes were then added to achieve a final volume of 100 μL. The plates were incubated for 2 hours at room temperature and then filtered onto PEI coated GF/B filter plates, pre-soaked for 1 hour in Assay Buffer, using a 96-well plate Tomtec cell harvester. Five washes with 250 μL wash buffer (50 mM HEPES, 1 mM EDTA, 120 mM NaCl, pH 7.4) were performed at 4° C. to remove unbound radioactivity. The plates were dried then sealed from underneath using Packard plate sealers and MicroScint-O (50 μL) was added to each well. The plates were sealed (TopSeal A) and filter-bound radioactivity was measured with a scintillation counter (TopCount, Packard BioScience) using a 3-minute counting protocol.
Total specific binding (B0) was determined by subtracting the mean NSB from the mean maximum binding. NSB values were also subtracted from values from all other wells. […] Data was fitted to a four parameter logistic equation to determine the compound potency, which was expressed as pIC50 (negative log molar concentration inducing 50% inhibition of [^125I]-Iodocyanopindolol binding).

Experiment [3] addresses T3, recombinant human α1D receptor (Homo sapiens, UniProt P25100).
T3 construct: expressed in transfected cells; host or cells: human embryonic kidney 293 cells (HEK93 [sic]), membranes
T3 sequence (P25100 1-572): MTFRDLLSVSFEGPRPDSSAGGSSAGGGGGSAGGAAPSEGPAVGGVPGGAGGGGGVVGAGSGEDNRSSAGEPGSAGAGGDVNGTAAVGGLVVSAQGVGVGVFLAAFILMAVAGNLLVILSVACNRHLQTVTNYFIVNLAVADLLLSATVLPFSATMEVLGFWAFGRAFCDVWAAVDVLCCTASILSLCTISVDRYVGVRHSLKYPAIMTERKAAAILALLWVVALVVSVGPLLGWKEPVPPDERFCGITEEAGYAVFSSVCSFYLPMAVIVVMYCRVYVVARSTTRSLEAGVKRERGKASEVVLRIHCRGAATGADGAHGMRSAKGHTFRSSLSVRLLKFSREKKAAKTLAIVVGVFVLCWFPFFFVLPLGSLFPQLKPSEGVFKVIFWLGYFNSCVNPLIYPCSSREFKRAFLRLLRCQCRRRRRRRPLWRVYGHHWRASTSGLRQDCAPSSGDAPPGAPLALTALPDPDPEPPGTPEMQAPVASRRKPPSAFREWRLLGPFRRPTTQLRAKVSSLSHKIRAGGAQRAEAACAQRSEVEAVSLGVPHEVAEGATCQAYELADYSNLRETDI
The experiment can be described thus: Adrenergic α1D selectivity assay, [3H]-prazosin binding to membranes. Conditions: inhibition of [3H]-prazosin binding, HEK cell membranes, read-out: α1 bind pIC50 (converted). On the procedure:
Membranes were prepared from human embryonic kidney 293 ([…]) cells expressing recombinant human α1D receptor. These were diluted in Assay Buffer (50 mM HEPES, 1 mM EDTA, pH 7.4) to provide a final concentration of membranes that gave a clear window between maximum and minimum specific binding.
as §1, with “10 μL [^3H]-prazosin (0.3 nM final” for “10 μL [^125I]-Iodocyanopindolol (0.036 nM final”, “and […] of test” for “and 10 μL of test”, “obtained for [^3H]-prazosin binding in” for “obtained for [^125I]-Iodocyanopindolol binding in”, “10 μL BMY7378 (10 μM” for “10 μL Propranolol (10 μM”, “mM EDTA, pH 7.4)” for “mM EDTA, 120 mM NaCl, pH 7.4)”
Total specific binding (B0) was determined by subtracting the mean NSB from the mean maximum binding. NSB values were also subtracted from values from all other wells. […] Data was fitted to a four parameter logistic equation to determine the compound potency, which was expressed as pIC50 (negative log molar concentration inducing 50% inhibition of [^3H]-prazosin binding).

Experiment [4] deals with T4, recombinant human Dopamine Subtype D2s receptors (Homo sapiens, UniProt P14416).
T4 construct: purchased Perkin Elmer
The experiment can be described thus: Dopamine D2 selectivity assay, [3H]-spiperone binding to membranes. As to conditions: inhibition of [3H]-spiperone binding, read-out: D2 bind pIC50 (converted). As to the method: Membranes containing recombinant human Dopamine Subtype D2s receptors were obtained from Perkin Elmer. These were diluted in Assay Buffer (50 mM HEPES, 1 mM EDTA, 120 mM NaCl, 0.1% gelatin, pH 7.4) to provide a final concentration of membranes that gave a clear window between maximum and minimum specific binding.
Assays were performed in U-bottomed 96-well polypropylene plates. 30 μL [^3H]-spiperone (0.16 nM final concentration) and 30 μL of test compound (10× final concentration) were added to each test well. For each assay plate 8 replicates were obtained for [^3H]-spiperone binding in the presence of 30 μL vehicle (10% (v/v) DMSO in Assay Buffer; defining maximum binding) or 30 μL Haloperidol (10 μM final concentration; defining non-specific binding (NSB)). Membranes were then added to achieve a final volume of 300 μL. The plates were incubated for 2 hours at room temperature and then filtered onto PEI coated GF/B filter plates, pre-soaked for 1 hour in Assay Buffer, using a 96-well plate Tomtec cell harvester. Five washes with 250 μL wash buffer (50 mM HEPES, 1 mM EDTA, 120 mM NaCl, pH 7.4) were performed at 4° C. to remove unbound radioactivity. The plates were dried then sealed from underneath using Packard plate sealers and MicroScint-0 (50 μL) was added to each well. The plates were sealed (TopSeal A) and filter-bound radioactivity was measured with a scintillation counter (TopCount, Packard BioScience) using a 3-minute counting protocol.
Total specific binding (B0) was determined by subtracting the mean NSB from the mean maximum binding. NSB values were also subtracted from values from all other wells. […] Data was fitted to a four parameter logistic equation to determine the compound potency, which was expressed as pIC50 (negative log molar concentration inducing 50% inhibition of [^3H]-spiperone binding).

T4 sequence (P14416 1-414 isoform P14416-2): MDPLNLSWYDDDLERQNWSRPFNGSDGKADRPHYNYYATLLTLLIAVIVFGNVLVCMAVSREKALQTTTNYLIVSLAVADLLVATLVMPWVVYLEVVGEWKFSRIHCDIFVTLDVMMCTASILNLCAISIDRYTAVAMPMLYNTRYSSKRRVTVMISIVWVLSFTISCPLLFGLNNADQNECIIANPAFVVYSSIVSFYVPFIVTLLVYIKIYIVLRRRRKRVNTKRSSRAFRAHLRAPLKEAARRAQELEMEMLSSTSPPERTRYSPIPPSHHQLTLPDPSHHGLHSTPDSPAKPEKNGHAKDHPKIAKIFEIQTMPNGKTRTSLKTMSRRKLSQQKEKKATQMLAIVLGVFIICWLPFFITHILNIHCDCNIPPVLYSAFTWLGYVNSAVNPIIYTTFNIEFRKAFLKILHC
T2 sequence (P08588 whole entry): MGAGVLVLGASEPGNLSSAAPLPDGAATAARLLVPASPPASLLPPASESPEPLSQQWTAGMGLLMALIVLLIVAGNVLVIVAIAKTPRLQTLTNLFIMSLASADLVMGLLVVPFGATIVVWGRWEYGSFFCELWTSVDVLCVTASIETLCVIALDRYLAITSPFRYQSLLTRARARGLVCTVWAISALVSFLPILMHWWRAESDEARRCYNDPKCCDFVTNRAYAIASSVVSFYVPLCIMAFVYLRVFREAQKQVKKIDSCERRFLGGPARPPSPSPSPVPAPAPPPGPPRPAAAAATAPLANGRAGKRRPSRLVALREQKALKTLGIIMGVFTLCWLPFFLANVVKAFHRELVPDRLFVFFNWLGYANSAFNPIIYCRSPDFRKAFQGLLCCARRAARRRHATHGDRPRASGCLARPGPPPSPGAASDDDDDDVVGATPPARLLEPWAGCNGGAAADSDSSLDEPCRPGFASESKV
T1 sequence (P07550 whole entry): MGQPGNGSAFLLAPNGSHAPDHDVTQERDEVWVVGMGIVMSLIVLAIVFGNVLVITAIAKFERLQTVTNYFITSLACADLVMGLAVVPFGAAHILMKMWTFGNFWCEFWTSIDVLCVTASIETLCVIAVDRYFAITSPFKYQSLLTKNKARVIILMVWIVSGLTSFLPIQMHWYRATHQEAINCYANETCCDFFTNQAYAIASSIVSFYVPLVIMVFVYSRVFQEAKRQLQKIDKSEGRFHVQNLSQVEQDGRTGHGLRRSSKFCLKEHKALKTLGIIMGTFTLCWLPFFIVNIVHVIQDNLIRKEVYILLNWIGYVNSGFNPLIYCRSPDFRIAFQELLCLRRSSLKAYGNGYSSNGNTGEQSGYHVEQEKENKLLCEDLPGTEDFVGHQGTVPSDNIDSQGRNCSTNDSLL

For `O=C(CCNCCc1cc(F)cc(F)c1)N(CCNCCc1ccc(O)c2[nH]c(=O)ccc12)C1CCCCCC1` [Example 10, N-Cycloheptyl-3-(3,5-difluorophenethylamino)-N-(2-(2-(8-hydroxy-2-oxo-1,2-dihydroquinolin-5-yl)ethylamino)ethyl)propanamide bis(trifluoroacetate)], in experiment [1], the “β2 Int Act” value amounted to 0.85 and the EC50 is 20 nM. Besides, the IC50 in experiment [2] was greater than 7.94 µM. Also, the IC50 in experiment [3] is 316 nM.
The like results for `O=C(CCNCCc1ccc(F)c(F)c1)N(CCNCCc1ccc(O)c2[nH]c(=O)ccc12)C1CCCCC1` [Example 16, N-Cyclohexyl-3-(3,4-difluorophenethylamino)-N-(2-(2-(8-hydroxy-2-oxo-1,2-dihydroquinolin-5-yl)ethylamino)ethyl)propanamide bis(trifluoroacetate)] were, in that order, 0.85, 20 nM, greater than 10 µM and 316 nM.
For `O=C1COc2c(CCNCCN(C(=O)CCNCCc3ccccc3Cl)C3CCCCC3)ccc(O)c2N1` [Example 28, 3-(2-Chlorophenethylamino)-N-cyclohexyl-N-(2-(2-(5-hydroxy-3-oxo-3,4-dihydro-2H-benzo[b][1,4]oxazin-8-yl)ethylamino)ethyl)propanamide bis(trifluoroacetate)], the “β2 Int Act” value in experiment [1] worked out at 0.86. For the same compound, the EC50 in experiment [1] was 2.51 nM. Moreover, the IC50 in experiment [4] is 0.0794 µM; in experiment [3] it was 39.8 nM.
Regarding `Cc1ccc(F)c(CCNCCC(=O)N(CCNCCc2ccc(O)c3c2OCC(=O)N3)C2CCCCC2)c1` [Example 33, N-Cyclohexyl-3-(2-fluoro-5-methylphenethylamino)-N-(2-(2-(5-hydroxy-3-oxo-3,4-dihydro-2H-benzo[b][1,4]oxazin-8-yl)ethylamino)ethyl)propanamide bis(trifluoroacetate)], in experiment [1], the “β2 Int Act” value is 0.9 and the EC50 was 1.58 nM. The IC50 in experiment [2] is 2.51 µM. Besides, in experiment [3], the IC50 is 79.4 nM.
On to `Cl.O=C(CCOCCc1ccc(F)cc1)N(CCNCCc1ccc(O)c2[nH]c(=O)ccc12)C1CCCCC1` [Example 71, N-Cyclohexyl-3-(4-fluorophenethoxy)-N-(2-(2-(8-hydroxy-2-oxo-1,2-dihydroquinolin-5-yl)ethylamino)ethyl)propanamide hydrochloride], for which, in experiment [1], the “β2 Int Act” value is 0.85 and the EC50 is 10 nM. Also, the IC50 in experiment [4] is 3.98 µM. The IC50 in experiment [3] was 631 nM.
The like results for `Cl.O=C(CCOCCc1cccc(F)c1)N(CCNCCc1ccc(O)c2[nH]c(=O)ccc12)C1CCCCC1` [Example 72, N-Cyclohexyl-3-(3-fluorophenethoxy)-N-(2-(2-(8-hydroxy-2-oxo-1,2-dihydroquinolin-5-yl)ethylamino)ethyl)propanamide hydrochloride] were, in that order, 0.92, 5.01 nM, 3.98 µM and 501 nM.
For `Cl.O=C(CCOCCc1ccccc1F)N(CCNCCc1ccc(O)c2[nH]c(=O)ccc12)C1CCCCC1` [Example 73, N-Cyclohexyl-3-(2-fluorophenethoxy)-N-(2-(2-(8-hydroxy-2-oxo-1,2-dihydroquinolin-5-yl)ethylamino)ethyl)propanamide hydrochloride], in that order: 0.94, 3.98 nM, 5.01 µM and 631 nM.
